Data taken from patent publication US10851096B2, “Aryl and heteroaryl amides for use as anti-proliferative, anti-thrombotic, and anti-viral agents” (Rutgers, The State University of New Jersey, priority 2016, dated 2020).

Molecular target: T1, hAxl/IFN-γR1 (Homo sapiens, UniProt P30530)
T1 construct: containing human Axl extracellular domains and transmembrane and intracellular domains of human IFN-γR1; human IFN-γR1 transmembrane and intracellular domains (fusion partner); expressed in transfected cells
T1 sequence (P30530 26-451 limits assumed): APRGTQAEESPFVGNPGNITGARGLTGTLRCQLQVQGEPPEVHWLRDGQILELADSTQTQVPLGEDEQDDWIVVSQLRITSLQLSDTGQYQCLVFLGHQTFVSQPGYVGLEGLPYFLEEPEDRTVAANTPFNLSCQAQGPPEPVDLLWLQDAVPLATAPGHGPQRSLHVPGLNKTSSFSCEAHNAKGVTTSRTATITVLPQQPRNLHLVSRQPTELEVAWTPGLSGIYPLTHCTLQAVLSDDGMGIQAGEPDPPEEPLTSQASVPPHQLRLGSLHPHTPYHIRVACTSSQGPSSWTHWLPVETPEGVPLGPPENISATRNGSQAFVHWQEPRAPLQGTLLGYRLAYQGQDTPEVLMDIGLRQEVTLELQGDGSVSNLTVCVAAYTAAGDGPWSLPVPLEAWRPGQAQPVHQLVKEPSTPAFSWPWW
Test: hAxl/IFN-γR1 CHO reporter cell line assay, Gas6-induced activation (pSTAT1 immunoblot)
Type: cell-based
Conditions: not given
Experimental: Stable HEK 293 cells secreting human Gas6 (clone 7.4.1) were allowed to achieve 70% confluence in a 10-cm plate. The complete medium with 10% FBS was then changed into serum free media in the presence of 10 µg/mL vitamin K1 (Phytonadione injectable emulsion from Hospira). After 72 hours, the Gas6 conditioned medium was collected, and validated for the presence of Gas6 and γ-carboxylation (by immunoblot) and activity of Gas6 (via activation of pSTAT1 in hAxl/γR1 cells).
Stable hAxl/IFN-γR1 CHO reporter cell lines (containing human Axl extracellular domains and transmembrane and intracellular domains of human IFN-γR1) were serum starved for 5 hrs±small molecule inhibitors and then stimulated with human Gas6 conditioned media±small molecule inhibitors for 30 minutes. For H1299 human non-small cell lung carcinoma and MDA-MB-231 human breast adenocarcinoma cell lines, the cells were serum starved overnight±small molecule inhibitors and stimulated with human Gas6 conditioned media±small molecule inhibitors for 30 minutes. Whole cell lysates of hAxl/IFN-γR1, H1299 and MDA-MB-231 cells were prepared using HNTG buffer (20 mM HEPES, pH 7.5, 150 mM NaCl, 10% glycerol, 1% Triton X-100, 1 mM PMSF, 1 mM Na3VO4, 10 mM Na2MoO4, 1 mM EDTA, 10 mM NaF and 20 μg/mL aprotinin). The resulting lysates were resolved on SDS-PAGE gel and immunoblotted with respective antibodies.
Immunoblot data were obtained within a linear range of exposure, and intensities were quantified by ImageJ. The levels of hAxl/IFN-γR1 cells lines activation were measured by pSTAT1 whereas the levels of H1299 and MDA-MB-231 cell lines activation were measured by pAxl signal intensities. Blots were normalized to intensities of respective β-actin or GAPDH protein loading controls. The levels of pSTAT1 or pAxl activation induced by Gas6±small molecule inhibitors were plotted as a fold of enhancement or reduction over intensities induced by Gas6 alone.

Q: For `Cc1cc(CSc2ccccc2C(=O)N2CCN(Cc3nc4cc(C(F)(F)F)ccc4s3)CC2)no1` [Compound 23], which remaining activity at 10 µM is on record?
A: Its remaining activity at 10 µM is 8%.

Q: With `Cc1cc(CSc2ccccc2C(=O)N2CCN(CC(=O)Nc3ccc(Cl)cn3)CC2)no1` [Compound 18] as the compound, how does the remaining activity at 10 µM read?
A: The remaining activity at 10 µM was 46%.

Q: Which remaining activity at 10 µM does the source give for `Cc1cc(CSc2ccccc2C(=O)NCCNc2nc3ccccc3o2)on1` [Compound 9] here?
A: The remaining activity at 10 µM was 20%.

Q: With `Cc1cc(CSc2ncncc2C(=O)NCCNc2ccc(C(F)(F)F)cc2[N+](=O)[O-])on1` [Compound 3] as the compound, how does the remaining activity at 10 µM read?
A: The remaining activity at 10 µM was 26%.

Q: With `Cc1nc(CSc2ccccc2C(=O)N2CCN(Cc3ccccc3)CC2)cs1` [1E] as the compound, how does the remaining activity at 10 µM read?
A: The remaining activity at 10 µM was 60%.

Q: For `Cc1cc(CSc2ccccc2C(=O)NCCNc2ccc(F)cc2C#N)on1` [Compound 10], which remaining activity at 10 µM is on record?
A: Its remaining activity at 10 µM is 14%.

Q: Which remaining activity at 10 µM does the source give for `Cc1cc(CSc2ccccc2C(=O)NCCNc2ncc(C(F)(F)F)cc2Cl)on1` [Compound 28] here?
A: The remaining activity at 10 µM was 6%.

Q: Which remaining activity at 10 µM does the source give for `Cc1cc(CSc2ccccc2C(=O)NCCNc2ccc(C(F)(F)F)cc2C#N)on1` [Compound 8] here?
A: The remaining activity at 10 µM was 9%.

Q: Which remaining activity at 10 µM does the source give for `Cc1cc(CSc2ccccc2C(=O)NCCNc2ccccc2[N+](=O)[O-])on1` [1R] here?
A: The remaining activity at 10 µM was 40%.

Q: Which remaining activity at 10 µM does the source give for `Cc1ccc(NC(=O)CN2CCN(C(=O)c3ccccc3SCc3cc(C)on3)CC2)c(Cl)c1` [Compound 25] here?
A: The remaining activity at 10 µM was 27%.

Q: Which remaining activity at 10 µM does the source give for `Cc1cc(CSc2ccccc2C(=O)N2CCN(Cc3nc4cc(Cl)ccc4s3)CC2)no1` [Compound 21] here?
A: Its remaining activity at 10 µM is 8%.

Q: For `O=C(c1ccccc1SCc1cccs1)N1CCN(Cc2ccncc2)CC1` [1O], which remaining activity at 10 µM is on record?
A: The remaining activity at 10 µM was 40%.

Q: With `O=C(c1ccccc1SCc1ccsc1)N1CCN(Cc2ccncc2)CC1` [1H] as the compound, how does the remaining activity at 10 µM read?
A: Its remaining activity at 10 µM is 20%.

Q: Which remaining activity at 10 µM does the source give for `Cc1cc(CSc2ccccc2C(=O)NCCNc2ccc(C(F)(F)F)cn2)on1` [Compound 6] here?
A: Its remaining activity at 10 µM is 6%.

Q: With `Cc1cc(CSc2ccccc2C(=O)NCCNc2nc(C(F)(F)F)cs2)on1` [Compound 13] as the compound, how does the remaining activity at 10 µM read?
A: Its remaining activity at 10 µM is 6%.

Q: For `Cc1cc(CSc2ccccc2C(=O)NCCNc2ccc(C#N)cc2)on1` [Compound 12], which remaining activity at 10 µM is on record?
A: The remaining activity at 10 µM was 16%.

Q: Which remaining activity at 10 µM does the source give for `Cc1cc(CSc2ccccc2C(=O)N2CCN(CC(=O)Nc3ccccc3Cl)CC2)no1` [1N] here?
A: The remaining activity at 10 µM was 30%.

Q: With `Cc1cc(CSc2nc(C)cc(C)c2C(=O)NCCNc2ccc(C(F)(F)F)cc2[N+](=O)[O-])on1` [Compound 4] as the compound, how does the remaining activity at 10 µM read?
A: Its remaining activity at 10 µM is 83%.

Q: Which remaining activity at 10 µM does the source give for `CCN(C(=O)CN1CCN(C(=O)c2ccccc2SCc2cc(C)on2)CC1)c1ccc(F)cc1` [Compound 22] here?
A: The remaining activity at 10 µM was 108%.

Q: Which remaining activity at 10 µM does the source give for `Cc1cc(CSc2ncccc2C(=O)N2CCN(CC(=O)Nc3ccccc3Cl)CC2)no1` [1L] here?
A: Its remaining activity at 10 µM is 20%.

Q: For `Cc1cc(CSc2ccccc2C(=O)N2CCN(Cc3ccc(C#N)cc3)CC2)no1` [1C], which remaining activity at 10 µM is on record?
A: Its remaining activity at 10 µM is 60%.

Q: For `Cc1cc(CSc2ccccc2C(=O)N2CCN(Cc3nc4ccccc4s3)CC2)no1` [1F], which remaining activity at 10 µM is on record?
A: Its remaining activity at 10 µM is 20%.

Q: Which remaining activity at 10 µM does the source give for `Cc1cc(CSc2ccccc2C(=O)N2CCN(CC(=O)Nc3ccccc3F)CC2)no1` [Compound 16] here?
A: The remaining activity at 10 µM was 109%.

Q: For `Cc1cc(CSc2ccccc2C(=O)N2CCN(Cc3ccc4c(c3)CCO4)CC2)no1` [1A], which remaining activity at 10 µM is on record?
A: The remaining activity at 10 µM was 60%.

Q: Which remaining activity at 10 µM does the source give for `Cc1nc(COc2ccccc2C(=O)N2CCN(Cc3ccncc3)CC2)cs1` [1P] here?
A: Its remaining activity at 10 µM is 100%.

Q: Which remaining activity at 10 µM does the source give for `Cc1cc(CSc2ccccc2C(=O)N2CCN(CC(=O)NCc3ccc(Cl)cc3)CC2)no1` [Compound 26] here?
A: The remaining activity at 10 µM was 54%.

Q: With `COc1ccc2nc(CN3CCN(C(=O)c4ccccc4SCc4cc(C)on4)CC3)sc2c1` [Compound 24] as the compound, how does the remaining activity at 10 µM read?
A: Its remaining activity at 10 µM is 90%.

Q: For `Cc1cc(CSc2ccccc2C(=O)NCCNc2ccc(C(F)(F)F)c(C#N)c2)on1` [Compound 11], which remaining activity at 10 µM is on record?
A: The remaining activity at 10 µM was 29%.

Q: With `Cc1cc(CSc2ccccc2C(=O)N2CCN(Cc3nc4cccc(Cl)c4o3)CC2)no1` [Compound 20] as the compound, how does the remaining activity at 10 µM read?
A: Its remaining activity at 10 µM is 55%.

Q: For `Cc1cc(CSc2ccccc2C(=O)NCCNc2nc3cc(C(F)(F)F)ccc3s2)on1` [Compound 7], which remaining activity at 10 µM is on record?
A: The remaining activity at 10 µM was 33%.

Q: With `Cc1cc(CSc2ccccc2C(=O)N2CCN(Cc3nc4ccccc4o3)CC2)no1` [Compound 19] as the compound, how does the remaining activity at 10 µM read?
A: Its remaining activity at 10 µM is 41%.

Q: Which remaining activity at 10 µM does the source give for `Cc1cc(CSc2ncccc2C(=O)NCCNc2ccc(C(F)(F)F)cc2[N+](=O)[O-])on1` [Compound 2] here?
A: The remaining activity at 10 µM was 57%.

Q: For `Cc1cc(CSc2ncccc2C(=O)N2CCN(CC(=O)Nc3cccc(C)c3C)CC2)no1` [1K], which remaining activity at 10 µM is on record?
A: The remaining activity at 10 µM was 80%.

Q: With `Cc1cc(CSc2ccccc2C(=O)N2CCN(CC(=O)Nc3ccc(F)cc3)CC2)no1` [Compound 14] as the compound, how does the remaining activity at 10 µM read?
A: Its remaining activity at 10 µM is 110%.

Q: For `Cc1cc(CSc2ccccc2C(=O)N2CCN(Cc3nc4ccccc4[nH]3)CC2)no1` [Compound 15], which remaining activity at 10 µM is on record?
A: The remaining activity at 10 µM was 141%.

Q: Which remaining activity at 10 µM does the source give for `Cc1noc(C)c1CSc1ccccc1C(=O)N1CCN(Cc2cccs2)CC1` [1M] here?
A: Its remaining activity at 10 µM is 20%.

Q: Which remaining activity at 10 µM does the source give for `Cc1cc(CSc2ccccc2C(=O)N2CCN(CC(=O)Nc3ccc(Cl)cc3)CC2)no1` [Compound 17] here?
A: The remaining activity at 10 µM was 79%.

Q: With `Cc1cc(CSc2ccccc2C(=O)N2CCN(Cc3ccncc3)CC2)no1` [1D] as the compound, how does the remaining activity at 10 µM read?
A: The remaining activity at 10 µM was 50%.

Q: With `Cc1cc(CSc2ccccc2C(=O)NCCNc2ncccn2)on1` [Compound 27] as the compound, how does the remaining activity at 10 µM read?
A: Its remaining activity at 10 µM is 16%.

Q: Which remaining activity at 10 µM does the source give for `Cc1cc(CSc2ccccc2C(=O)N2CCN(CC(=O)N3CCOCC3)CC2)no1` [1B] here?
A: Its remaining activity at 10 µM is 70%.

Q: For `Cc1cc(CSc2ccccc2C(=O)NCCNc2nc3ccccc3s2)on1` [Compound 5], which remaining activity at 10 µM is on record?
A: Its remaining activity at 10 µM is 13%.

Molecular target: T2, Tyro3 (Homo sapiens, UniProt Q06418)
T2 sequence (Q06418 41-890): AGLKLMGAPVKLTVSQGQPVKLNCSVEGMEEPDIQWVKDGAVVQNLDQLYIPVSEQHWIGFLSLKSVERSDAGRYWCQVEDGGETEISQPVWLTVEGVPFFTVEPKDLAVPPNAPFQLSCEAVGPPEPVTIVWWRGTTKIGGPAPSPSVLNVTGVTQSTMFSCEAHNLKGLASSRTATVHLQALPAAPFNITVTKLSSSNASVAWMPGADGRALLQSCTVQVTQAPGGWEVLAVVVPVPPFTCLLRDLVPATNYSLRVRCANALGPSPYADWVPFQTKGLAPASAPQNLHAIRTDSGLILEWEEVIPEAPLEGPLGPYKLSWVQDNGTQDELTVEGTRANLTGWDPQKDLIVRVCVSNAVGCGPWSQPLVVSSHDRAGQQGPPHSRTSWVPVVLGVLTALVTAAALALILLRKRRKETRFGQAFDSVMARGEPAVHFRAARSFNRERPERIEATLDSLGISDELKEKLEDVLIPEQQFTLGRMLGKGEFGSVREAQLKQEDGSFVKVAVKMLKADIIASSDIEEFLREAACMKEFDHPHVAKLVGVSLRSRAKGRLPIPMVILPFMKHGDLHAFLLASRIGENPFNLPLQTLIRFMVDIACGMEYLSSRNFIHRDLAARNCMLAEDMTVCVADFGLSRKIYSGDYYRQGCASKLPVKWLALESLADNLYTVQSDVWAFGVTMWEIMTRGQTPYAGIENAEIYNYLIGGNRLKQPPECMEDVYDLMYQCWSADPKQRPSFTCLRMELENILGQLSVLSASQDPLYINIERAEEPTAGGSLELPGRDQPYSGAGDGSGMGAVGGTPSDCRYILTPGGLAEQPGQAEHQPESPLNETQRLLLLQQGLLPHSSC
Test: not given
Conditions: cited from earlier work

Q: For `Nc1nc(Nc2ccc3c(c2)CC[C@@H](N2CCCC2)CC3)nn1-c1cc2c(nn1)-c1ccccc1CCC2` [BGB324], which IC50 is on record?
A: Its IC50 is 1.4 µM.
